Legend:
[1] = test system: HHFSC (Human Hair Follicle Stem Cells); assay: Cellular in vitro stem cell protection assay (UVB-induced apoptosis, caspase 3/7); assay type: cell-based; conditions: light or radiation study, 25 mJ/cm^2 UVB, read-out: Inhibition of UV induced apoptosis [%]
Protocol: HHFSC (Human Hair Follicle Stem Cells) isolated from hair follicle bulge (Celprogen) were cultivated in culture ware pre-coated with Human Hair Follicle Stem Cell Extra-cellular Matrix (Celprogen). The cells were incubated 2 h prior to and 16 h after UVB irradiation with test compounds. Cells were irradiated with 25 mJ/cm^2 UVB in the presence of buffer solution. Apoptosis induction was evaluated by caspase 3/7 protein expression (Caspase-Glo 3/7, Promega) and quantified by chemiluminescence measurement.
The inhibition of apoptosis induction in the presence of test substances was calculated according to the following equation: […]
The abbreviations have the following meanings: • RLU test substance: • RLU of the wells with test substance and with UVB irradiation • RLU control: • RLU of the wells without test substance, but with UVB irradiation • RLU control without UVB: • RLU of the wells without test substance and without UVB irradiation

[2] = test system: Primary human dermal fibroblasts; assay: Cellular in vitro DCF assay (intracellular ROS); assay type: cell-based; set-up: unit of the concentration uncertain
Protocol: Primary human dermal fibroblasts (Lonza) are disseminated in a 96-well microtiter plate in a concentration of 1×10^4 cells/well (DMEM, 10% FKS). After cultivation in fully enriched medium (DMEM, 10% FCS) for 24 h at 37° C. and 5% CO2, the serum content was reduced to 0.1% for further 24 h to synchronize the cell cycle. Confluence was supposed to be around 70% at the time, the incubation with the test substances began. Various concentrations of the test substances, two backgrounds (untreated cells), control (possible with solvent) and Trolox as internal standard (1000 μM) were applied to the cells in DMEM and incubated for further 18-20 h. […], 100 μl H2DCF-DA-solution (2,7-Dichlorfluorescein, 10 μM) incl. DAPI (1:1000) was added to all samples (excluded the background-control) and incubated for one hour to de-esterify the H2DCF-DA by cellular esterases. The resulting H2DCF was thereby trapped inside the cell. After the incubation, the cells were washed and the prooxidant challenge was set (1 mM, 1 h). The resulting fluorescence was read at Ex 504 nm; Em 524 nm. An increased level of ROS (reactive oxygen species) led to an increased amount of fluorescence.
Results are mean values from 2 independent experiments with quadruple determinations each.
The inhibition of the oxidation in the presence of test substances was calculated according to the following equation: […]
The abbreviations have the following meanings: • RFU DAPI: Relative fluorescence units (Ex 380/20, Em 440/40) of the wells with test substance, DAPI and DCF treatment, with cells • RFU DCF: Relative fluorescence units (Ex 485/20, Em 528/20) of the wells with test substance, DAPI and DCF treatment, with cells • RFU control: Relative fluorescence units of the wells without test substance, DAPI and DCF treatment, with cells (The control was calculated like the other samples.) • RFU BLANK: Relative fluorescence units of the wells without test substance, without DAPI and DCF treatment but with cells

Heme Oxygenase-1 = assay: Cellular in vitro heme oxygenase-1 expression assay on NHDF (Western blot); assay type: cell-based, human; conditions: 24 h, 0.0134% b.w.
Protocol: NHDF (normal human dermal fibroblasts) cells were disseminated in a 6-well plate in a concentration of 2×10^5 cells/well (DMEM, 10% FCS). After cultivation in fully enriched medium (DMEM, 10% FCS) for 72 h at 37° C. and 5% CO2, the serum content was reduced to 0.1% to synchronize the cell cycle. Various concentrations of the test substances, the negative control (untreated cells) and tert. butylhydrochinon as positive control, are added and incubated for a further 24 h. The maximum concentration of the test substances used corresponds to 0.2 times the value of the IC20 of the cytotoxicity assay. After cell lysis, the protein amount was determined using the Biorad BCA assay. All samples were adjusted to the same protein level before application on a fast Criterion Gel (Biorad) to perform electrophoresis for 20 minutes at 300 V. Thereafter the proteins were transferred to a PVDF membrane on a semi-dry blotter (30 minutes, 25 V). The blotted membrane is blocked for 4 hours in a 5% milk powder solution in TBST at 4° C. After washing, the membrane is incubated with the first antibody solution HO-1 from abcam (1:500 in 1% milk powder in TBST) over night. […] The resulting band pattern is detected with a chemiluminescence sensitive camera system (Vil-ber Loumat). The quantification was done by densitometry, using the Image J freeware software.

Hyaluronic acid = assay: Cellular in vitro hyaluronic acid assay on NHDF (competitive ELISA); assay type: cell-based, human; conditions: 72 h
Protocol: NHDF (normal human dermal fibroblasts) cells were disseminated in a 96-well microtiter plate in a concentration of 2×10^4 cells/well (DMEM, 10% FCS). After cultivation in fully enriched medium (DMEM, 10% FCS) for 72 h at 37° C. and 5% CO2, the serum content was reduced to 0.1% to synchronize the cell cycle and incubated for further 24 h. Various concentrations of the test substances and TGF-beta1 as internal standard are added and incubated for 72 h. The maximum concentration of the test substances used corresponds to 0.2 times the value of the IC20 of the cytotoxicity assay. Hyaluronic acid is quantified by a competitive ELISA (TECOmedical TE1017).
The percent bound for each standard and unknown substance is calculated using the following equation: […]
A standard curve is generated by plotting the aborptions of the given concentrations in a linear proportion. The gradient of the line is determined and the value of the substances calculated as follows: • 1. value=1/RFU • 2. value=((1. value)−b)/m) • Compound of Hyaluronic acid [ng/ml]=2. value*dilution

[3] = test system: B16V mouse melanoma cells; assay: Depigmentation effect on melanoma cell cultures; assay type: cell-based; conditions: 0.6 mM tyrosine and 10 nM MSH, 96 h, read-out: IC50 (Inhibition of pigmentation)
Protocol: B16V mouse melanoma cells are disseminated in a 96-well micro-titre plate in a concentration of 7.5×10^3 cells/well. After cultivation for 24 h at 37° C. and 5% CO2 in RPMI medium, enriched with 10% foetal calf serum, various concentrations of the test substances and 0.6 mM tyrosine and 10 nM-MSH (-melanocyte stimulating hormone) are added and incubated for a further 96 h. The maximum concentration of the test substances used corresponds to 0.1 times the value of the IC20 value of the cytotoxicity assay. Only tyrosine and -MSH are added to the controls. After incubation, sodium hydroxide solution (final concentrations: 1 M) is added to the culture medium and the absorption (A) is measured after 3 h at 400 nm.
The inhibition of pigmentation in the presence of the test compounds was calculated using the following equation: Inhibition of pigmentation (%)=100−[(Atest compound/Acontrol)×100] wherein • Atest compound=absorption of the wells with test substance and with cells • Acontrol=absorption of the wells without test substance, but with cells
From the inhibition of pigmentation (%) in a series of dilutions of test compounds, the IC50 for each test compound is calculated. This is the concentration of a test compound at which pigmentation is inhibited by 50%.

`CC1CC(OC(=O)CCC(=O)N(C)C)CC(C)(C)C1` (stereo not shown) [S7a/S7b**] was tested, and the inhibition at 20 µM ([1]; 0.02 mM) was 5%, the inhibition at 200 µM ([1]; 0.20 mM) was 32% and the “Intracellular ROS reduction [%]” value ([2]; concentration 1 (unit uncertain)) was −2%. For the same compound, the “Intracellular ROS reduction [%]” value ([2]; concentration 10 (unit uncertain)) was 11%, the “Intracellular ROS reduction [%]” value ([2]; concentration 50 (unit uncertain)) was 16.3% and the “Intracellular ROS reduction [%]” value ([2]; concentration 100 (unit uncertain)) was 19.5%. For the same compound, the “Up-regulation (HO1-Amount relative to control)” value (Heme Oxygenase-1) was 14.5-fold, the “Stimulation (Hyaluronic acid stimulation relative to control)” value (Hyaluronic acid; 0.00012 % b.w.) was 34.4% and the “Stimulation (Hyaluronic acid stimulation relative to control)” value (Hyaluronic acid; 0.00120 % b.w.) was 67.3%. For the same compound, the IC50 [3] was 18.4 µM.

From patent publication US9820923B2, “Succinate derivatives” (Symrise AG, priority 2013, dated 2017)
